Laboratory results published in patent publication US12661410B2, “Compounds for targeted degradation of RET” (C4 Therapeutics, Inc., priority 2020, dated 2026).
Where a chain is given by its changes, count along the chain named. Where two headings read alike, the source gives them in different places.

What was measured:
RET(KD: 658-1114 G810R) = molecular target: T1, RET(KD: 658-1114 G810R) (Homo sapiens, UniProt P07949, G810R); test: HiBiT-Degradation, RET G810R degradation assay (Nano-Glo HiBiT Lytic), 293T.165 cells; type: cell-based; details: for Emax / DC50: 6.0 hours; for Emax: % remaining protein, read-out: 293T.165 RET(KD: 658-1114 G810R) 6.0 hours (Emax); for DC50: read-out: 293T.165 RET(KD: 658-1114 G810R) 6.0 hours (DC50)
T1 construct: 658-1114; expressed in transfected cells; host or cells: 293T.165 (293T cells, generated in-house)
T1 sequence (P07949 658-1114 G810R): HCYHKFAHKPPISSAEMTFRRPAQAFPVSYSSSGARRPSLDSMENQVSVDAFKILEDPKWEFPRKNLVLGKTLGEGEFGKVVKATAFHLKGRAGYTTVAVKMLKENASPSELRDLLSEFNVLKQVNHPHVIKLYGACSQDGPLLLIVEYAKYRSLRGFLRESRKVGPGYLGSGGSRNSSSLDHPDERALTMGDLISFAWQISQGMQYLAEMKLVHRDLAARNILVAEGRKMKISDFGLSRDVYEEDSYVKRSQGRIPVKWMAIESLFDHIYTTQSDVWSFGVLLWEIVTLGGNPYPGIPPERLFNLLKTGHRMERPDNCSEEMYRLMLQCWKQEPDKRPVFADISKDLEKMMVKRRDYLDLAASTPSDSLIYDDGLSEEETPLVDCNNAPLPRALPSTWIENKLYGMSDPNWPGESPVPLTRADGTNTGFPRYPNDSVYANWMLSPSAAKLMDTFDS
Text: (§1) Dulbecco's modified Eagle medium (DMEM) no-phenol red media and fetal bovine serum (FBS) were purchased from Gibco (Grand Island, NY, USA). Cell lines ectopically expressing wild-type or G810R RET kinase domain fused with a HiBiT tag were generated in-house (293T. 144 and 293T. 165, respectively). Cell culture flasks and 384-well microplates were acquired from VWR (Radnor, PA, USA). The Nano-Glo® HiBiT Lytic Assay System was purchased from Promega (Madison, WI, USA).
(§2) RET wild-type (WT) and G810R degradation were assessed using the Nano-Glo® HiBiT Lytic assay (Promega, Medison, WI, USA). To determine the effect of degraders on protein levels, cells were plated in 384-well plates and treated with compounds of interest in duplicates for 6 hours using an 11-point half-log dilution series, with the highest dose set at 10 μM. Cell lysis and addition of the Nano-Glo® HiBiT Lytic Assay reagents was then performed. Luminescence signal was measured using an EnVision™ Multimode plate reader (Perkin Elmer, Santa Clara, CA, USA). The half-maximal degradation concentration (DC50) and % remaining protein (Emax) was then derived from the dose-response curves.

RET (658-1114) = molecular target: T2, RET (658-1114) (Homo sapiens, UniProt P07949); test: HiBiT-Degradation, RET wild-type degradation assay (Nano-Glo HiBiT Lytic), 293T.144 cells; type: cell-based; details: for DC50 / Emax: 6.0 hours; for DC50: read-out: 293T.144 RET (658-1114) 6.0 hours (DC50); for Emax: read-out: 293T.144 RET (658-1114) 6.0 hours (Emax)
T2 construct: 658-1114; expressed in transfected cells; host or cells: 293T.144 (293T cells, generated in-house)
T2 sequence (P07949 658-1114): T1 sequence (P07949 658-1114 G810R) with R153G
Text: as §1, §2

[1] = half-maximal degradation concentration

Row | SMILES | Emax (RET(KD: 658-1114 G810R)) [%] | DC50 (RET(KD: 658-1114 G810R); [1]) [nM] | 293T.144 RET (658-1114) 6.0 hours (IP) [nM] (RET (658-1114); HiBiT-Degradation) | DC50 (RET (658-1114); HiBiT-Degradation) [nM] | Emax (RET (658-1114); HiBiT-Degradation) [%] | 293T.165 RET(KD: 658-1114 G810R) 6.0 hours (Emax) (RET(KD: 658-1114 G810R); HiBiT-Degradation) | 293T.165 RET(KD: 658-1114 G810R) 6.0 hours (IP) [nM] (RET(KD: 658-1114 G810R); HiBiT-Degradation) | DC50 (RET(KD: 658-1114 G810R); HiBiT-Degradation) [nM] | 293T.144 RET (658-1114) 6.0 hours (IP) [nM] (RET (658-1114)) | Emax (RET (658-1114); % remaining protein) [%] | DC50 (RET (658-1114); [1]) [nM] | 293T.165 RET(KD: 658-1114 G810R) 6.0 hours (IP) [nM] (RET(KD: 658-1114 G810R))
1 | CCC1(C(=O)NC(C)C)CCN(c2ccc(-c3cc(-c4cnc(N5CCN(C(=O)CN6CCC(c7ccc(NC8CCC(=O)NC8=O)cc7F)CC6)CC5)nc4)cn4ncc(C#N)c34)cn2)CC1 (stereo not shown) [Compound 37, 1-(5-(3-Cyano-6-(2-(4-(2-(4-(4-((2,6-dioxopiperidin-3-yl)amino)-2-fluorophenyl)piperidin-1-yl)acetyl)piperazin-1-yl)pyrimidin-5-yl)pyrazolo[1,5-a]pyridin-4-yl)pyridin-2-yl)-4-ethyl-N-isopropylpiperidine-4-carboxamide] | < 50 | < 1000 | – | – | – | – | – | – | – | – | – | –
2 | CCC1(C(=O)NC(C)C)CCN(c2ccc(-c3cc(-c4cnn(C5CCN(C(=O)CC6(O)CCN(c7ccc(NC8CCC(=O)NC8=O)cc7F)CC6)CC5)c4)cn4ncc(C#N)c34)cn2)CC1 (stereo not shown) [Compound 4, 1-[5-[3-cyano-6-[1-[1-[2-[1-[4-[(2,6-dioxo-3-piperidyl)amino]-2-fluoro-phenyl]-4-hydroxy-4-piperidyl]acetyl]-4-piperidyl]pyrazol-4-yl]pyrazolo[1,5-a]pyridin-4-yl]-2-pyridyl]-4-ethyl-N-isopropyl-piperidine-4-carboxamide] | < 30 | < 50 | ++++ (< 50 nM = ++++) | < 50 | < 30 | ++++ (< 30% = ++++) | ++++ (< 50 nM = ++++) | < 50 | – | – | – | –
3 | CCC1(C(=O)NC(C)C)CCN(c2ccc(-c3nc(-c4cnn(C5CCN(C(=O)CN6C7CCC6CC(c6ccc(NC8CCC(=O)NC8=O)cc6F)C7)CC5)c4)cn4ncc(C#N)c34)cn2)CC1 (stereo not shown) [Compound 94, 1-[5-[3-cyano-6-[1-[1-[2-[3-[4-[(2,6-dioxo-3-piperidyl)amino]-2-fluoro-phenyl]-8-azabicyclo[3.2.1]octan-8-yl]acetyl]-4-piperidyl]pyrazol-4-yl]pyrazolo[1,5-a]pyrazin-4-yl]-2-pyridyl]-4-ethyl-N-isopropyl-piperidine-4-carboxamide] | < 30 | < 50 | – | – | – | – | – | – | ++++ (<50 nM = ++++) | < 30 | < 50 | ++++ (<50 nM = ++++)
4 | CCC1(C(=O)NC2CCC2)CCN(c2ccc(-c3nc(-c4cnn([C@H]5CC[C@H](CN6CCN(c7ccc(N[C@H]8CCC(=O)NC8=O)cc7F)CC6)CC5)c4)cn4ncc(C#N)c34)cn2)CC1 [Compound 189, 1-[5-[3-cyano-6-[1-[4-[[4-[4-[[(3S)-2,6-dioxo-3-piperidyl]amino]-2-fluoro-phenyl]piperazin-1-yl]methyl]cyclohexyl]pyrazol-4-yl]pyrazolo[1,5-a]pyrazin-4-yl]-2-pyridyl]-N-cyclobutyl-4-ethyl-piperidine-4-carboxamide] | < 30 | < 100 | – | – | – | – | – | – | ++++ (<50 nM = ++++) | < 30 | < 50 | ++++ (<50 nM = ++++)
5 | CCC1(C(=O)NC(C)C)CCN(c2ccc(-c3cc(-c4cnn(C5CCN(C(=O)CN6CCC(c7ccc8c(N9CCC(=O)NC9=O)nn(C)c8c7)CC6)CC5)c4)cn4ncc(C#N)c34)cn2)CC1 [Compound 63, 1-[5-[3-cyano-6-[1-[1-[2-[4-[3-(2,4-dioxohexahydropyrimidin-1-yl)-1-methyl-indazol-6-yl]-1-piperidyl]acetyl]-4-piperidyl]pyrazol-4-yl]pyrazolo[1,5-a]pyridin-4-yl]-2-pyridyl]-4-ethyl-N-isopropyl-piperidine-4-carboxamide] | < 30 | < 100 | ++++ (< 50 nM = ++++) | < 50 | < 30 | ++++ (< 30% = ++++) | ++++ (< 50 nM = ++++) | < 100 | – | – | – | –
6 | N#Cc1cnn2cc(-c3cnn(C4CCN(C(=O)CN5CCC(c6ccc(NC7CCC(=O)NC7=O)cc6F)CC5)CC4)c3)nc(-c3ccc(N4CCN(Cc5ccccn5)CC4)cc3)c12 (stereo not shown) [Compound 61, 6-[1-[1-[2-[4-[4-[(2,6-dioxo-3-piperidyl)amino]-2-fluoro-phenyl]-1-piperidyl]acetyl]-4-piperidyl]pyrazol-4-yl]-4-[4-[4-(2-pyridylmethyl)piperazin-1-yl]phenyl]pyrazolo[1,5-a]pyrazine-3-carbonitrile] | < 50 | < 100 | ++++ (< 50 nM = ++++) | < 50 | < 30 | +++ (<50% = +++) | ++++ (< 50 nM = ++++) | < 100 | – | – | – | –
7 | CCC1(C(=O)NC(C)C)CCN(c2ccc(-c3cc(-c4ccc(N5CCN(C(=O)CN6CCC(c7ccc(C8CCC(=O)NC8=O)cc7)CC6)CC5)cc4)cn4ncc(C#N)c34)cn2)CC1 (stereo not shown) [Compound 29, 1-(5-(3-Cyano-6-(4-(4-(2-(4-(4-(2,6-dioxopiperidin-3-yl)phenyl)piperidin-1-yl)acetyl)piperazin-1-yl)phenyl)pyrazolo[1,5-a]pyridin-4-yl)pyridin-2-yl)-4-ethyl-N-isopropylpiperidine-4-carboxamide] | < 50 | < 1000 | – | – | – | – | – | – | – | – | – | –
8 | CCC1(C(=O)N[C@H](C)C(F)(F)F)CCN(c2ccc(-c3cc(-c4cnn(C5CCN(C(=O)CN6CCC(c7ccc(NC8CCC(=O)NC8=O)cc7F)CC6)CC5)c4)cn4ncc(C#N)c34)cn2)CC1 (stereo partly drawn) [Compound 7, 1-[5-[3-cyano-6-[1-[1-[2-[4-[4-[(2,6-dioxo-3-piperidyl)amino]-2-fluoro-phenyl]-1-piperidyl]acetyl]-4-piperidyl]pyrazol-4-yl]pyrazolo[1,5-a]pyridin-4-yl]-2-pyridyl]-4-ethyl-N-[(1R)-2,2,2-trifluoro-1-methyl-ethyl]piperidine-4-carboxamide] | < 50 | < 1000 | – | – | – | – | – | – | – | – | – | –
9 | N#Cc1cnn2cc(-c3ccc(N4CCN(C(=O)CN5CCC(c6ccc(NC7CCC(=O)NC7=O)cc6)CC5)CC4)cc3)cc(-c3ccc(C4(CO)CCCCC4)nc3)c12 (stereo not shown) [Compound 21, 6-(4-(4-(2-(4-(4-((2,6-Dioxopiperidin-3-yl)amino)phenyl)piperidin-1-yl)acetyl)piperazin-1-yl)phenyl)-4-(6-(1-(hydroxymethyl)cyclohexyl)pyridin-3-yl)pyrazolo[1,5-a]pyridine-3-carbonitrile] | < 50 | < 1000 | – | – | – | – | – | – | – | – | – | –
10 | CC(C)NC(=O)C1(C)CCN(c2ccc(-c3cc(-c4ccc(N5CCN(C(=O)CC6(O)CCN(c7ccc(CN8CCC(=O)NC8=O)cc7)CC6)CC5)cc4)cn4ncc(C#N)c34)cn2)CC1 [Compound 33, 1-[5-[3-cyano-6-[4-[4-[2-[1-[4-[(2,4-dioxohexahydropyrimidin-1-yl)methyl]phenyl]-4-hydroxy-4-piperidyl]acetyl]piperazin-1-yl]phenyl]pyrazolo[1,5-a]pyridin-4-yl]-2-pyridyl]-N-isopropyl-4-methyl-piperidine-4-carboxamide] | < 70 | > 1000 | – | – | – | – | – | – | – | – | – | –
